Patent publication US20260374756A1, “HETEROCYCLIC COMPOUNDS AS INHIBITORS OF MONOACYLGLYCEROL LIPASE (MAGL)” (Hoffmann-La Roche Inc., priority 2022, published 2026)

target: T1, hMAGL (Homo sapiens, UniProt Q99685); assay: 2-AG assay: MAGL inhibition, hydrolysis of 2-arachidonoylglycerol to arachidonic acid followed by mass spectrometry; type: biochemical
T1 sequence (Q99685 1-303): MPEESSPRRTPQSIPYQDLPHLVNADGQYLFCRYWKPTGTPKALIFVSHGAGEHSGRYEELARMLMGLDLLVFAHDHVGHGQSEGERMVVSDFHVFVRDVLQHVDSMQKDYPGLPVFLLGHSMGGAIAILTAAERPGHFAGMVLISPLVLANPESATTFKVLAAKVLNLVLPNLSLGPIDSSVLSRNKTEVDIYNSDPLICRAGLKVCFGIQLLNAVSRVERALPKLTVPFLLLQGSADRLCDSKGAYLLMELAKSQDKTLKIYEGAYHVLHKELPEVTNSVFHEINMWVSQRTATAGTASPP
Experimental: Compounds of formula (I) were profiled for MAGL inhibitory activity by determining the enzymatic activity by following the hydrolysis of the natural substrate 2-arachidonoylglycerol (2-AG) resulting in arachidonic acid, which can be followed by mass spectrometry. This assay is hereinafter abbreviated “2-AG assay”. The 2-AG assay was carried out in 384 well polypropylene assay plates. […] Compound dilutions were added to MAGL protein in assay buffer (50 mM TRIS, 1 mM EDTA, 0.01% (v/v) Tween-20, 2.5% (v/v) DMSO). After shaking, the plate was incubated for 15 min at RT. To start the reaction, 2-arachidonoylglycerol in assay buffer was added. The final concentrations in the assay was […] for MAGL protein and 8 μM 2-arachidonoylglyerol. After shaking and 30 min incubation at RT, the reaction was quenched by the addition of two assay volumes of acetonitrile containing 4 μM of d8-arachidonic acid. The amount of arachidonic acid formed was traced by an online SPE system (Agilent Rapidfire) coupled to a triple quadrupole mass spectrometer. A C18 SPE cartridge (Agilent G9205A) was used in an acetonitrile/water liquid setup. […] The activity of the compounds was calculated based on the ratio of intensities [arachidonic acid/d8-arachidonic acid].

SMILES | IC50
CC(C)(C)c1ncc(CN2CC3(C2)CN(C(=O)N2CC4(CC(n5cnc(C6CC6)n5)C4)C2)C3)s1 [Example 57, [6-[(2-tert-butylthiazol-5-yl)methyl]-2,6-diazaspiro[3.3]heptan-2-yl]-[6-(3-cyclopropyl-1,2,4-triazol-1-yl)-2-azaspiro[3.3]heptan-2-yl]methanone] | 5.1 nM
CC(C)(C)c1ncc(CN2CC3(C2)CN(C(=O)N2CC4(CC(n5cnc(C6(O)CC6)n5)C4)C2)C3)s1 [Example 58, [6-[(2-tert-butylthiazol-5-yl)methyl]-2,6-diazaspiro[3.3]heptan-2-yl]-[6-[3-(1-hydroxycyclopropyl)-1,2,4-triazol-1-yl]-2-azaspiro[3.3]heptan-2-yl]methanone] | 8.12 nM
Cn1cc(OC2CC3(C2)CN(C(=O)N2CC4(CC(n5cnc(C6(O)CC6)n5)C4)C2)C3)c(C(F)(F)F)n1 [Example 59, [6-[3-(1-hydroxycyclopropyl)-1,2,4-triazol-1-yl]-2-azaspiro[3.3]heptan-2-yl]-[6-[1-methyl-3-(trifluoromethyl)pyrazol-4-yl]oxy-2-azaspiro[3.3]heptan-2-yl]methanone] | 55.4 nM
O=C(N1CC2(CC(Cc3cn(C4CC4)nc3C(F)(F)F)C2)C1)N1CC2(CC(n3cnc(C(F)(F)F)n3)C2)C1 [Example 61, [6-[[1-cyclopropyl-3-(trifluoromethyl)pyrazol-4-yl]methyl]-2-azaspiro[3.3]heptan-2-yl]-[6-[3-(trifluoromethyl)-1,2,4-triazol-1-yl]-2-azaspiro[3.3]heptan-2-yl]methanone] | 0.26 nM
O=C(N1CC2(CC(Cc3cn(C4CC4)nc3C(F)(F)F)C2)C1)N1CC2(CC(n3cnc(C4CC4)n3)C2)C1 [Example 62, [6-(3-cyclopropyl-1,2,4-triazol-1-yl)-2-azaspiro[3.3]heptan-2-yl]-[6-[[1-cyclopropyl-3-(trifluoromethyl)pyrazol-4-yl]methyl]-2-azaspiro[3.3]heptan-2-yl]methanone] | 0.14 nM
Cn1ncc(C(F)(F)F)c1CN1CCC2(CC1)CN(C(=O)N1CC3(CC(c4cc(C5CC5)n[nH]4)C3)C1)C2 [Example 64, [6-(3-cyclopropyl-1H-pyrazol-5-yl)-2-azaspiro[3.3]heptan-2-yl]-[7-[[2-methyl-4-(trifluoromethyl)pyrazol-3-yl]methyl]-2,7-diazaspiro[3.5]nonan-2-yl]methanone] | 0.32 nM
Cn1ncc(C(F)(F)F)c1CN1CCC2(CC1)CN(C(=O)N1CC3(CC(n4cnc(C(F)(F)F)n4)C3)C1)C2 [Example 65, [7-[[2-methyl-4-(trifluoromethyl)pyrazol-3-yl]methyl]-2,7-diazaspiro[3.5]nonan-2-yl]-[6-[3-(trifluoromethyl)-1,2,4-triazol-1-yl]-2-azaspiro[3.3]heptan-2-yl]methanone] | 0.87 nM
Cc1cc(C(F)(F)F)nn1CC1CC2(C1)CN(C(=O)N1CC3(CC(n4cnc(C5CC5)n4)C3)C1)C2 [Example 69, [6-(3-cyclopropyl-1,2,4-triazol-1-yl)-2-azaspiro[3.3]heptan-2-yl]-[6-[[5-methyl-3-(trifluoromethyl)pyrazol-1-yl]methyl]-2-azaspiro[3.3]heptan-2-yl]methanone] | 4.09 nM
Cc1cc(C(F)(F)F)n(CC2CC3(C2)CN(C(=O)N2CC4(CC(n5cnc(C6CC6)n5)C4)C2)C3)n1 [Example 72, [6-(3-cyclopropyl-1,2,4-triazol-1-yl)-2-azaspiro[3.3]heptan-2-yl]-[6-[[3-methyl-5-(trifluoromethyl)pyrazol-1-yl]methyl]-2-azaspiro[3.3]heptan-2-yl]methanone] | 3.09 nM
Cc1cc(C(F)(F)F)n(CC2CC3(C2)CN(C(=O)N2CC4(CC(n5cnc(C6(O)CC6)n5)C4)C2)C3)n1 [Example 73] | 110 nM
O=C(N1CC2(CC(n3cnc(C4CC4)n3)C2)C1)N1CC2(CN(Cc3snnc3C3CCC3)C2)C1 [Example 77, [6-[(4-cyclobutylthiadiazol-5-yl)methyl]-2,6-diazaspiro[3.3]heptan-2-yl]-[6-(3-cyclopropyl-1,2,4-triazol-1-yl)-2-azaspiro[3.3]heptan-2-yl]methanone] | 1.62 nM
O=C(N1CC2(CCN(Cc3cc(C(F)(F)F)on3)CC2)C1)N1CC2(CC(n3cnc(C(F)(F)F)n3)C2)C1 [Example 79, [7-[[5-(trifluoromethyl)isoxazol-3-yl]methyl]-2,7-diazaspiro[3.5]nonan-2-yl]-[6-[3-(trifluoromethyl)-1,2,4-triazol-1-yl]-2-azaspiro[3.3]heptan-2-yl]methanone] | 71.4 nM

More lines, in order of falling IC50, values ahead:

IC50 | SMILES
131 nM | Cc1cc(C(F)(F)F)nn1CC1CC2(C1)CN(C(=O)N1CC3(CC(n4cnc(C5(O)CC5)n4)C3)C1)C2 [Example 70]
22.9 nM | O=C(N1CC2(CC(n3cnc(C4(O)CC4)n3)C2)C1)N1CC2(CN(Cc3snnc3C3CCC3)C2)C1 [Example 78, [6-[(4-cyclobutylthiadiazol-5-yl)methyl]-2,6-diazaspiro[3.3]heptan-2-yl]-[6-[3-(1-hydroxycyclopropyl)-1,2,4-triazol-1-yl]-2-azaspiro[3.3]heptan-2-yl]methanone]
18.3 nM | O=C(N1CC2(CC(Cc3cn(C4CC4)nc3C(F)(F)F)C2)C1)N1CC2(CC(n3cnc(C4(O)CC4)n3)C2)C1 [Example 63, [6-[[1-cyclopropyl-3-(trifluoromethyl)pyrazol-4-yl]methyl]-2-azaspiro[3.3]heptan-2-yl]-[6-[3-(1-hydroxycyclopropyl)-1,2,4-triazol-1-yl]-2-azaspiro[3.3]heptan-2-yl]methanone]
8.61 nM | O=C(N1CC2(CCN(Cc3cc(C(F)(F)F)on3)CC2)C1)N1CC2(CC(n3cnc(C4CC4)n3)C2)C1 [Example 80, [6-(3-cyclopropyl-1,2,4-triazol-1-yl)-2-azaspiro[3.3]heptan-2-yl]-[7-[[5-(trifluoromethyl)isoxazol-3-yl]methyl]-2,7-diazaspiro[3.5]nonan-2-yl]methanone]
7.62 nM | O=C(N1CC2(CC(Cn3cnc(C4(C(F)(F)F)CC4)n3)C2)C1)N1CC2(CC(n3cnc(C4(O)CC4)n3)C2)C1 [Example 75, [6-[3-(1-hydroxycyclopropyl)-1,2,4-triazol-1-yl]-2-azaspiro[3.3]heptan-2-yl]-[6-[[3-[1-(trifluoromethyl)cyclopropyl]-1,2,4-triazol-1-yl]methyl]-2-azaspiro[3.3]heptan-2-yl]methanone]
5.8 nM | Cc1cc(C(F)(F)F)nn1CC1CC2(C1)CN(C(=O)N1CC3(CC(n4cnc(C(F)(F)F)n4)C3)C1)C2 [Example 68, [6-[[5-methyl-3-(trifluoromethyl)pyrazol-1-yl]methyl]-2-azaspiro[3.3]heptan-2-yl]-[6-[3-(trifluoromethyl)-1,2,4-triazol-1-yl]-2-azaspiro[3.3]heptan-2-yl]methanone]
5.73 nM | O=C(N1CC2(CC(n3cnc(C(F)(F)F)n3)C2)C1)N1CC2(CN(Cc3snnc3C3CCC3)C2)C1 [Example 76, [6-[(4-cyclobutylthiadiazol-5-yl)methyl]-2,6-diazaspiro[3.3]heptan-2-yl]-[6-[3-(trifluoromethyl)-1,2,4-triazol-1-yl]-2-azaspiro[3.3]heptan-2-yl]methanone]
3.7 nM | Cc1cc(C(F)(F)F)n(CC2CC3(C2)CN(C(=O)N2CC4(CC(n5cnc(C(F)(F)F)n5)C4)C2)C3)n1 [Example 71, [6-[[3-methyl-5-(trifluoromethyl)pyrazol-1-yl]methyl]-2-azaspiro[3.3]heptan-2-yl]-[6-[3-(trifluoromethyl)-1,2,4-triazol-1-yl]-2-azaspiro[3.3]heptan-2-yl]methanone]
2.12 nM | Cn1ncc(C(F)(F)F)c1CN1CCC2(CC1)CN(C(=O)N1CC3(CC(n4cnc(C5(O)CC5)n4)C3)C1)C2 [Example 67, [6-[3-(1-hydroxycyclopropyl)-1,2,4-triazol-1-yl]-2-azaspiro[3.3]heptan-2-yl]-[7-[[2-methyl-4-(trifluoromethyl)pyrazol-3-yl]methyl]-2,7-diazaspiro[3.5]nonan-2-yl]methanone]
1.63 nM | O=C(N1CC2(CC(Cn3cc(C4(C(F)(F)F)CC4)cn3)C2)C1)N1CC2(CC(n3cnc(C4(O)CC4)n3)C2)C1 [Example 60, [6-[3-(1-hydroxycyclopropyl)-1,2,4-triazol-1-yl]-2-azaspiro[3.3]heptan-2-yl]-[6-[[4-[1-(trifluoromethyl)cyclopropyl]pyrazol-1-yl]methyl]-2-azaspiro[3.3]heptan-2-yl]methanone]
0.42 nM | O=C(N1CC2(CC(Cn3cnc(C4(C(F)(F)F)CC4)n3)C2)C1)N1CC2(CC(c3cc(C4CC4)n[nH]3)C2)C1 [Example 74, [6-(3-cyclopropyl-1H-pyrazol-5-yl)-2-azaspiro[3.3]heptan-2-yl]-[6-[[3-[1-(trifluoromethyl)cyclopropyl]-1,2,4-triazol-1-yl]methyl]-2-azaspiro[3.3]heptan-2-yl]methanone]
0.41 nM | Cn1ncc(C(F)(F)F)c1CN1CCC2(CC1)CN(C(=O)N1CC3(CC(n4cnc(C5CC5)n4)C3)C1)C2 [Example 66, [6-(3-cyclopropyl-1,2,4-triazol-1-yl)-2-azaspiro[3.3]heptan-2-yl]-[7-[[2-methyl-4-(trifluoromethyl)pyrazol-3-yl]methyl]-2,7-diazaspiro[3.5]nonan-2-yl]methanone]
